{"source": "patent US20220133650A1", "about": "“COMBINATION THERAPY FOR TREATMENT OF BRAIN DISORDERS” (B. G. NEGEV TECHNOLOGIES AND APPLICATIONS LTD., AT …, priority 2019, published 2022)", "key": {"[1]": {"tested_on": "exposed rat cortex", "assay": "Seizure (4AP)-induced BBB dysfunction, fluorescent angiography permeability index", "type": "in vivo, Sprague-Dawley rats", "conditions": "4AP-induced seizures (SE), NaFlu tracer, mean±SEM"}, "[2]": {"tested_on": "rat brain", "assay": "Contrast enhanced T1-weighted MRI after photo-induced thrombotic stroke, relative BBB dysfunction volume", "type": "in vivo", "conditions": "48 h following photothrombosis; osmotic pumps i.p.; memantine 40 mg/kg, losartan 60 mg/kg; mean±SEM"}, "[3]": {"tested_on": "rat brain", "assay": "T2-weighted MRI after photo-induced thrombotic stroke, relative lesion volume", "type": "in vivo", "conditions": "48 h following photothrombosis; osmotic pumps i.p.; memantine 40 mg/kg, losartan 60 mg/kg; mean±SEM"}, "[4]": {"tested_on": "exposed rat cortex", "assay": "Agonist-induced vascular permeability to NaFlu, agonists added to ACSF with neuronal activity blocked", "type": "in vivo, Sprague-Dawley rats", "conditions": "neuronal activity and synaptic transmission blocked, mean±SEM"}, "[5]": {"conditions": "30 min after adding the agonist to ACSF"}, "[6]": {"conditions": "10 min after adding the agonist to ACSF"}}}
{"compound": "N[C@H](CCCP(=O)(O)O)C(=O)O", "note": "[AP5, D-(−)-2-amino-5-phosphonopentanoic acid]", "values": [{"measurement": "shift in PI (BBB permeability index) from baseline", "setting": "[1]; 10 min from seizure onset", "value": "−1.19±4.71", "unit": "%"}, {"measurement": "shift in PI (BBB permeability index) from baseline", "setting": "[1]; 30 min from seizure onset", "value": "18.78±6.93", "unit": "%"}]}
{"compound": "CC12CC3CC(C)(C1)CC(N)(C3)C2", "note": "[memantine, 3,5-dimethyladamantan-1-amine]", "values": [{"measurement": "relative BBB dysfunction volume (100*# BBBD voxels/# brain voxels)", "setting": "[2]", "value": "15.03±1.83", "unit": "%"}, {"measurement": "relative lesion volume (100*# lesion voxels/# brain voxels)", "setting": "[3]", "value": "24.18±3.75", "unit": "%"}, {"measurement": "shift in PI (BBB permeability index) from baseline", "setting": "[1]; 10 min from seizure onset", "value": "3.14±3.1", "unit": "%"}, {"measurement": "shift in PI (BBB permeability index) from baseline", "setting": "[1]; 30 min from seizure onset", "value": "20.86±3.78", "unit": "%"}]}
{"compound": "TGF-β1: transforming growth factor beta 1, 10 ng/ml added to the ACSF", "values": [{"measurement": "shift in vascular permeability to NaFlu (PI shift from pre-substance application)", "setting": "[4]; [5]", "value": "15.3±7.62", "unit": "%"}]}
{"compound": "angiotensin II (DRVYIHPF; Angiotensin-2; UniProt P01019 25-32, looked up) [ATII, angiotensin II, agonist added to the ACSF, 70 μM]", "values": [{"measurement": "shift in vascular permeability to NaFlu (PI shift from pre-substance application)", "setting": "[4]; [6]", "value": "−4.11±3.35", "unit": "%"}, {"measurement": "shift in vascular permeability to NaFlu (PI shift from pre-substance application)", "setting": "[4]; [5]", "value": "−12.33±3.45", "unit": "%"}]}
{"compound": "bovine-serum albumin: bovine serum albumin, 0.2 mM added to the ACSF", "values": [{"measurement": "shift in vascular permeability to NaFlu (PI shift from pre-substance application)", "setting": "[4]; [6]", "value": "−2.55±4.6", "unit": "%"}, {"measurement": "shift in vascular permeability to NaFlu (PI shift from pre-substance application)", "setting": "[4]; [5]", "value": "−0.33±8.36", "unit": "%"}]}
